Laboratory results taken from US9914730B2, “Azaquinazoline inhibitors of Atypical protein Kinase C” (Ignyta, Inc., priority 2012, dated 2018).

Molecular target: T1, full-length human PKCι (Homo sapiens, UniProt P41743)
T1 construct: Recombinant, full-length human PKCι expressed in Sf21 insect cells is also commercially available; purchased; host or cells: Sf21 insect cells
T1 sequence (P41743 1-596): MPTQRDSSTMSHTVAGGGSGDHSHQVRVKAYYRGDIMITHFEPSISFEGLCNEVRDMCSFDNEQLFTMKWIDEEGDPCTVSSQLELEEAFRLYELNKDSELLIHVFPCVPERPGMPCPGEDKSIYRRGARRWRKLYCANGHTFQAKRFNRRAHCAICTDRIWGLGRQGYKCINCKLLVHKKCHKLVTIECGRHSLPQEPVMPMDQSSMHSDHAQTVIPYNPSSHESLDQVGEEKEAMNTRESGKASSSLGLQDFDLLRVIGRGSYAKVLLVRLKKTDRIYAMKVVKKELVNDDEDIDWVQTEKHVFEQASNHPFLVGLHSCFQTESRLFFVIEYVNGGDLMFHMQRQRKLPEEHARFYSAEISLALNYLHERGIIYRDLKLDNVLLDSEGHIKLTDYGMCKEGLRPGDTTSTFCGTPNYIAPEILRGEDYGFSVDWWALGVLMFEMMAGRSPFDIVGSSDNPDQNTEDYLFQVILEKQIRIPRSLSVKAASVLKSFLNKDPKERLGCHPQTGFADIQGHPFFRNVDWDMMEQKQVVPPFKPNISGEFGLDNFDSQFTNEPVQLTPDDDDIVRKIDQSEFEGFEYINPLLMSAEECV
Test: PKCι IC50 IMAP assay, full-length PKCι at 150 μM ATP
Format: biochemical
Conditions: read-out: IC50 in IMAP assay against full length PKCi at 150 μM ATP
Outline: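 IC50 from IMAP FP (ex 485/em 530 nm) after 60 min room-temperature reaction in pH 7.5 tris buffer with 9 mM MgCl2 and 0.9 mM DTT. Enzyme: full-length Sf21-expressed PKCι (~15 pM); ATP 150 μM, five times KM^APP; FAM-labelled peptide 100 nM; DMSO 4%.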

Structure (SMILES)	IC50
Cn1ccc(Nc2cc(-c3nc(N4CCN[C@@H](C(F)(F)F)C4)c4c(C5CC5)cncc4n3)ccn2)n1 [Example 2053, {4-[5-Cyclopropyl-4-((R)-3-trifluoromethyl-piperazin-1-yl)-pyrido[3,4-d]pyrimidin-2-yl]-pyridin-2-yl}-(1-methyl-1H-pyrazol-3-yl)-amine]	< 100 nM
Fc1cc(F)c(F)c(Nc2cc(-c3nc(N[C@@H]4CCNC4)c4c(C5CC5)cncc4n3)ccn2)n1 [Example 2054, {5-Cyclopropyl-2-[2-(3,4,6-trifluoro-pyridin-2-ylamino)-pyridin-4-yl]-pyrido[3,4-d]pyrimidin-4-yl}-(R)-pyrrolidin-3-yl-amine]	< 100 nM
Cn1nccc1-c1ccc(Nc2cc(-c3nc(N4CCNCC4)c4c(C5CC5)cncc4n3)ccn2)c(F)c1 [Example 2055, [4-(5-Cyclopropyl-4-piperazin-1-yl-pyrido[3,4-d]pyrimidin-2-yl)-pyridin-2-yl]-[2-fluoro-4-(2-methyl-2H-pyrazol-3-yl)-phenyl]-amine]	< 100 nM
Fc1cc(F)c(Nc2cc(-c3nc(N[C@@H]4CCNC4)c4c(C5CC5)cncc4n3)ccn2)nc1F [Example 2056, {5-Cyclopropyl-2-[2-(3,5,6-tritluoro-pyridin-2-ylamino)-pyridin-4-yl]-pyrido[3,4-d]pyrimidin-4-yl}-(R)-pyrrolidin-3-yl-amine]	< 100 nM
CN(c1nc(-c2ccnc(Nc3c(F)cccc3F)c2)nc2cncc(C3CC3)c12)[C@@H]1CCNC1 [Example 2057, {5-Cyclopropyl-2-[2-(2,6-difluoro-phenylamino)-pyridin-4-yl]-pyrido[3,4-d]pyrimidin-4-yl}-methyl-(R)-pyrrolidin-3-yl-amine]	< 100 nM
Fc1cccc(F)c1Nc1cc(-c2nc(NC3CCCNCC3)c3c(C4CC4)cncc3n2)ccn1 (stereo not drawn) [Example 2058, Azepan-4-yl-{5-cyclopropyl-2-[2-(2,6-difluoro-phenylamino)-pyridin-4-yl]-pyrido[3,4-d]pyrimidin-4-yl}-amine]	< 100 nM

The next lines start with the values.

IC50	Structure (SMILES)
< 100 nM	c1ccc2c(Nc3cc(-c4nc(N5CCNCC5)c5c(C6CC6)cncc5n4)ccn3)cccc2c1 [Example 2059, [4-(5-Cyclopropyl-4-piperazin-1-yl-pyrido[3,4-d]pyrimidin-2-yl)-pyridin-2-yl]-naphthalen-1-yl-amine]
< 100 nM	c1ccc2cc(Nc3cc(-c4nc(N5CCNCC5)c5c(C6CC6)cncc5n4)ccn3)ncc2c1 [Example 2060, [4-(5-Cyclopropyl-4-piperazin-1-yl-pyrido[3,4-d]pyrimidin-2-yl)-pyridin-2-yl]-iso[D4],[D3]uinolin-3-yl-amine]
< 100 nM	Cn1nc(Nc2cc(-c3nc(N4CCNCC4)c4c(C5CC5)cncc4n3)ccn2)c2ccccc21 [Example 2061, [4-(5-Cyclopropyl-4-piperazin-1-yl-pyrido[3,4-d]pyrimidin-2-yl)-pyridin-2-yl]-(1-methyl-1H-indazol-3-yl)-amine]
< 100 nM	Fc1cc(F)c(F)c(Nc2cc(-c3nc(NC4CCNCC4)c4c(C5CC5)cncc4n3)ccn2)n1 [Example 2062, {5-Cyclopropyl-2-[2-(3,4,6-trifluoro-pyridin-2-ylamino)-pyridin-4-yl]-pyrido[3,4-d]pyrimidin-4-yl}-piperidin-4-yl-amine]
< 100 nM	CC(C)(c1cc2c(-c3nc(N4CCNCC4)c4c(C5CC5)cncc4n3)ccnc2[nH]1)C(F)(F)F [Example 2063, 5-Cyclopropyl-4-piperazin-1-yl-2-[2-(2,2,2-trifluoro-1,1-dimethyl-ethyl)-1H-pyrrolo[2,3-b]pyridin-4-yl]-pyrido[3,4-d]pyrimidine]
< 100 nM	c1ccc(C2(c3cc4c(-c5nc(N6CCNCC6)c6c(C7CC7)cncc6n5)ccnc4[nH]3)CCC2)cc1 [Example 2064, 5-Cyclopropyl-2-[2-(1-phenyl-cyclobutyl)-1H-pyrrolo[2,3-b]pyridin-4-yl]-4-piperazin-1-yl-pyrido[3,4-d]pyrimidine]
